# Data published in US11413278B2, “Compounds and methods for promoting stress resistance” (priority 2015, dated 2022).
# Like-named read-outs stand apart in the source and are kept apart here.
# Key:
# NRF2 [1] = experiment: qPCR analysis of NRF2-regulated genes; type: cell-based, human; conditions: for fold induction at 10 µM: Homo sapiens
# Outline: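 Expression of HMOX1, NQO1, GCLC and GSTM1 measured by qPCR relative to B2M, PPIA and GAPDH. Cells were WI-38 fibroblasts exposed 24 hrs to 10 μM compound, with RNA and cDNA prepared via Cells-to-Ct. Where stated, cells were first transfected 36 hrs with FOXO3 or NRF2 siRNA at 10 nM.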
# WI-38 cells = conditions: for Assay 1: H2O2-resistant: YES/NO, if NO, possibly due to repeated freezing/thawing of stocks
# [2] = system: PC12 cells expressing poly(Q)103-Htt-EGFP; experiment: Poly(Q) toxicity & viability analysis (cellular model of Huntington's disease); type: cell-based, rat; conditions: for M = Huntington's poly-Q toxicity attenuation: score; for K = Huntington's poly-Q toxicity attenuation: summary score
# Outline: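 Readout is CellTiter-Glo ATP content measured after 48 hrs. Cells are a PC12 line stably expressing inducible poly(Q)103-Htt-EGFP, where induction produces toxic aggregates.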
# NRF2 [3] = experiment: in vitro; type: cell-based, human
# mTOR = mTOR inhibition (RPS6 phosphorylation status), In-Cell Western; type: cell-based, human
# Outline: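 Read-out is In-Cell Western near-infrared imaging of phospho-RPS6 (Ser-235/236) against total RPS6, using overnight 4° C primary staining and DyLight 680/800 secondaries. Compounds were given to WI-38 cells for 24 hrs at three doses: 5, 10 and 20 μM.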
# [4] = 10 μM, 24 hrs, WI-38 cells, qPCR, normalized to B2M, n = 4
# [5] = WI-38 cells, 10 μM, 24 hrs, n=4, qPCR normalized by B2M
# [6] = rounded fold change, WI-38 cells, 10 μM, 24 hrs (RP29 for Gr-4D)
# [7] = WI-38 cells, 10 μM, (*) = compromised ability to protect cells from H2O2, could be due to stability issue
# [8] = WI-38 cells, 10 uM, normalized ATP measurement
# [9] = asterisks indicate the loss of the ability to protect cells from H2O2 over time
# [10] = derived from dose response curves, 0.6-20 uM, H2O2-resistance of WI-38 cells
# [11] = read-out: Est. ED50, dose response 0.6-20 μM, H2O2-resistance
# [12] = 24 h, Assay 12(o), at 10 uM, qPCR, read-out: Induction of NRF2-regulated genes: GCLC normalized fold-change
# [13] = 24 h, Assay 12(o), at 10 uM, qPCR, read-out: Induction of NRF2-regulated genes: HMOX1 normalized fold-change
# [14] = 24 h, Assay 12(o), at 10 uM, qPCR, read-out: Induction of NRF2-regulated genes: NQO1 normalized fold-change
# [15] = rounded fold change, WI-38 cells, 10 μM, 24 hrs (RP11 for Gr-1D, RP29 for Gr-4D), read-out: Summary of effects on NRF2-regulated genes: HMOX1
# [16] = rounded fold change, WI-38 cells, 10 μM, 24 hrs (RP29 for Gr-4D), read-out: Summary of effects on NRF2-regulated genes: NQO1
# [17] = rounded fold change, WI-38 cells, 10 μM, 24 hrs, read-out: Summary of effects on NRF2-regulated genes: GCLC
# [18] = 10 μM, 24 hrs, WI-38 cells, qPCR, normalized to B2M, n = 4, read-out: GCLC expression, normalized fold change (NRF2-regulated gene)
# [19] = 10 μM, 24 hrs, WI-38 cells, qPCR, normalized to B2M, n = 4, read-out: HMOX1 expression, normalized fold change (NRF2-regulated gene)
# [20] = 10 μM, 24 hrs, WI-38 cells, qPCR, normalized to B2M, n = 4, read-out: NQO1 expression, normalized fold change (NRF2-regulated gene)
# [21] = WI-38 cells, 10 μM, 24 hrs, n=4, qPCR normalized by B2M, read-out: GCLC Normalized fold change
# [22] = WI-38 cells, 10 μM, 24 hrs, n=4, qPCR normalized by B2M, read-out: GSTM1 Normalized fold change
# [23] = WI-38 cells, 10 μM, 24 hrs, n=4, qPCR normalized by B2M, read-out: HMOX1 Normalized fold change
# [24] = WI-38 cells, 10 μM, 24 hrs, n=4, qPCR normalized by B2M, read-out: NQO1 Normalized fold change
smiles,measurement,setting,value
COc1cc2c(no[n+]2[O-])n2nnnc12 [O11],"Induction of at least two NRF2-regulated genes (HMOX1, NQO1, GCLC, GSTM1)","NRF2 [1]; 10 μM, 24 hrs, WI-38",could induce expression of at least two genes
same,"GSTM1 expression, normalized fold change (NRF2-regulated gene)",NRF2 [1]; [4],"GSTM1 1.30, fold"
same,"NQO1 expression, normalized fold change (NRF2-regulated gene)",NRF2 [1]; [4],"NQO1 2.03, fold"
same,F = Potential NRF2 Activation,NRF2 [1]; 2-point score,0
same,Induction of NRF2-regulated genes: GSTM1 normalized fold-change,"NRF2 [1]; Assay 12(o), at 10 uM, qPCR","GSTM1 1.30, fold-change"
same,Induction of NRF2-regulated genes: NQO1 normalized fold-change,"NRF2 [1]; Assay 12(o), at 10 uM, qPCR","NQO1 2.03, fold-change"
same,GCLC Normalized fold change,NRF2 [1]; [5],1.333 fold change
same,GSTM1 Normalized fold change,NRF2 [1]; [5],1.304 fold change
same,HMOX1 Normalized fold change,NRF2 [1]; [5],1.069 fold change
same,NQO1 Normalized fold change,NRF2 [1]; [5],2.027 fold change
same,Summary of effects on NRF2-regulated genes: GSTM1,NRF2 [1]; [6],"1.30,"
same,Summary of effects on NRF2-regulated genes: NQO1,NRF2 [1]; [6],"2.03,"
same,F = Potential NRF2 Activation,NRF2 [1]; summary score,0
same,"Screen 1: Screening, at 10 uM (viability assay by ATP measurement, normalized fold-change shown, >=2.5)","WI-38 cells; 10 uM, 24 h, then 700 μM H2O2 3 h, normalized to DMSO",3.42 fold-change
same,"Screen 2: Dose response, at 10 uM (viability assay by ATP measurement, normalized fold-change shown, >=1.5)","WI-38 cells; 10 uM, H2O2 stress",6.71 fold-change
same,"Screen 3: Dose response, at 20 uM (viability assay by ATP measurement, normalized fold-change shown)","WI-38 cells; 20 uM, H2O2 stress",3.00 fold-change
same,"Exp. 1, under H2O2 stress treatment, at 10 uM (fold change)","WI-38 cells; Exp. 1, WI-38 cells, 10 uM, normalized ATP measurement (Table 12)",3.53 fold change
same,"Exp. 2, under H2O2 stress treatment, at 10 uM (fold change)","WI-38 cells; Exp. 2, WI-38 cells, 10 uM, normalized ATP measurement (Table 12)",2.10 fold change
same,"Experiment 1, WI-38 cells (under H2O2 stress treatment), at 10 uM (fold change)","WI-38 cells; Experiment 1, WI-38 cells, 10 uM (run along with HDF cells)",2.52 fold change
same,"Experiment 2, WI-38 cells (under H2O2 stress treatment), at 10 uM (fold change)","WI-38 cells; Experiment 2, WI-38 cells, 10 uM (run along with HDF cells)",28.12 fold change
same,"Dose response retest, at 10 uM (fold change)","WI-38 cells; H2O2-resistance of WI-38 cells, cherry-picked retest, 10 uM",6.71 fold change
same,"Dose response retest, at 20 uM (fold change)","WI-38 cells; H2O2-resistance of WI-38 cells, cherry-picked retest, 20 uM",3.00 fold change
same,"Library Screening, at 10 uM (fold change)","WI-38 cells; H2O2-resistance of WI-38 cells, library screening, 10 uM",3.42 fold change
same,H2O2-resistant,WI-38 cells; [7],YES
same,"H2O2 stress treatment (3 hrs), at 10 uM (fold change)","WI-38 cells; WI-38 cells, H2O2 3 hrs, 10 uM, normalized ATP measurement",7.18 fold change
same,"No H2O2 stress treatment, at 10 uM (fold change)",WI-38 cells; [8],0.75 fold change
same,Assay 1: H2O2-resistant,WI-38 cells,YES
same,H2O2-resistant,WI-38 cells; [9],YES
same,EC50,WI-38 cells; [10],4.4 µM
same,EC50,WI-38 cells; [11],4.4 µM
same,M = Huntington's poly-Q toxicity attenuation,[2],0
same,K = Huntington's poly-Q toxicity attenuation,[2],0
same,J = NRF2-dependency for H2O2-resistance,NRF2 [3]; score,0
same,J = NRF2-dependency for H2O2-resistance,NRF2 [3]; summary score,0
same,G = mTOR down-regulation,mTOR; 2-point score,0
same,G = mTOR down-regulation,mTOR; summary score,0
CCCC(=O)Nc1ccc(-c2cn3cccc(C)c3n2)cc1 [O12],F = Potential NRF2 Activation,NRF2 [1]; 2-point score,0
same,fold induction at 10 µM,NRF2 [1]; [12],0.54
same,fold induction at 10 µM,NRF2 [1]; [13],0.76
same,fold induction at 10 µM,NRF2 [1]; [14],0.66
same,fold induction at 10 µM,NRF2 [1]; [15],0.82
same,fold induction at 10 µM,NRF2 [1]; [16],0.69
same,fold induction at 10 µM,NRF2 [1]; [17],0.53
same,fold induction at 10 µM,NRF2 [1]; [18],0.53
same,fold induction at 10 µM,NRF2 [1]; [19],0.82
same,fold induction at 10 µM,NRF2 [1]; [20],0.69
same,fold induction at 10 µM,NRF2 [1]; [21],0.531
same,fold induction at 10 µM,NRF2 [1]; [22],1.21
same,fold induction at 10 µM,NRF2 [1]; [23],0.821
same,fold induction at 10 µM,NRF2 [1]; [24],0.692
same,F = Potential NRF2 Activation,NRF2 [1]; summary score,0
same,H2O2-resistant,WI-38 cells; [7],YES
same,"No H2O2 stress treatment, at 10 uM (fold change)",WI-38 cells; [8],1.01 fold change
same,H2O2-resistant,WI-38 cells; [9],YES
same,EC50,WI-38 cells; [10],1 µM
same,EC50,WI-38 cells; [11],1 µM
same,M = Huntington's poly-Q toxicity attenuation,[2],0
same,K = Huntington's poly-Q toxicity attenuation,[2],0
same,J = NRF2-dependency for H2O2-resistance,NRF2 [3]; score,0
same,J = NRF2-dependency for H2O2-resistance,NRF2 [3]; summary score,0
same,G = mTOR down-regulation,mTOR; 2-point score,0
same,G = mTOR down-regulation,mTOR; summary score,0
O=C(c1ccc([N+](=O)[O-])o1)N1CCc2ccccc21 [O13],F = Potential NRF2 Activation,NRF2 [1]; 2-point score,2
same,"Potential NRF2 Activation (>=2 target genes induced, by >=1.5-fold)",NRF2 [1]; Assay 13(p),YES
same,fold induction at 10 µM,NRF2 [1]; [12],1.99
same,fold induction at 10 µM,"NRF2 [1]; 24 h, Assay 12(o), at 10 uM, qPCR, read-out: Induction of NRF2-regulated genes: GSTM1 normalized fold-change",1.31
same,fold induction at 10 µM,NRF2 [1]; [13],5.52
same,fold induction at 10 µM,NRF2 [1]; [14],2.95
same,fold induction at 10 µM,NRF2 [1]; [15],5.52
same,fold induction at 10 µM,"NRF2 [1]; rounded fold change, WI-38 cells, 10 μM, 24 hrs (RP29 for Gr-4D), read-out: Summary of effects on NRF2-regulated genes: GSTM1",1.31
same,fold induction at 10 µM,NRF2 [1]; [16],2.95
same,fold induction at 10 µM,NRF2 [1]; [17],1.99
same,fold induction at 10 µM,"NRF2 [1]; 10 μM, 24 hrs, WI-38, read-out: Expression of at least two NRF2 target genes",> 1.5
same,fold induction at 10 µM,NRF2 [1]; [18],1.99
same,fold induction at 10 µM,"NRF2 [1]; 10 μM, 24 hrs, WI-38 cells, qPCR, normalized to B2M, n = 4, read-out: GSTM1 expression, normalized fold change (NRF2-regulated gene)",1.31
same,fold induction at 10 µM,NRF2 [1]; [19],5.52
same,fold induction at 10 µM,NRF2 [1]; [20],2.95
same,fold induction at 10 µM,NRF2 [1]; [21],1.99
same,fold induction at 10 µM,NRF2 [1]; [22],1.31
same,fold induction at 10 µM,NRF2 [1]; [23],5.52
same,fold induction at 10 µM,NRF2 [1]; [24],2.95
same,F = Potential NRF2 Activation,NRF2 [1]; summary score,2
same,H2O2-resistant,WI-38 cells; [7],YES
same,"No H2O2 stress treatment, at 10 uM (fold change)",WI-38 cells; [8],1.09 fold change
same,Assay 1: H2O2-resistant,WI-38 cells,YES
same,H2O2-resistant,WI-38 cells; [9],YES
same,EC50,WI-38 cells; [10],10.1 µM
same,EC50,WI-38 cells; [11],10.1 µM
same,M = Huntington's poly-Q toxicity attenuation,[2],0
same,K = Huntington's poly-Q toxicity attenuation,[2],0
same,J = NRF2-dependency for H2O2-resistance,NRF2 [3]; score,0
same,J = NRF2-dependency for H2O2-resistance,NRF2 [3]; summary score,0
same,G = mTOR down-regulation,mTOR; 2-point score,0
same,G = mTOR down-regulation,mTOR; summary score,0
Oc1ncnc2sc3c(c12)CCC3 [O14],F = Potential NRF2 Activation,NRF2 [1]; 2-point score,0
same,fold induction at 10 µM,NRF2 [1]; [21],1.07
same,fold induction at 10 µM,NRF2 [1]; [22],1.53
same,fold induction at 10 µM,NRF2 [1]; [23],1.11
same,fold induction at 10 µM,NRF2 [1]; [24],0.871
same,F = Potential NRF2 Activation,NRF2 [1]; summary score,0
same,H2O2-resistant,WI-38 cells; [7],YES
same,"No H2O2 stress treatment, at 10 uM (fold change)",WI-38 cells; [8],1.11 fold change
same,Assay 1: H2O2-resistant,WI-38 cells,YES
same,H2O2-resistant,WI-38 cells; [9],YES
same,EC50,WI-38 cells; [10],12.5 µM
same,EC50,WI-38 cells; [11],12.5 µM
same,M = Huntington's poly-Q toxicity attenuation,[2],0
same,K = Huntington's poly-Q toxicity attenuation,[2],0
same,J = NRF2-dependency for H2O2-resistance,NRF2 [3]; score,0
same,J = NRF2-dependency for H2O2-resistance,NRF2 [3]; summary score,0
same,G = mTOR down-regulation,mTOR; 2-point score,0
same,G = mTOR down-regulation,mTOR; summary score,0
